Test results published in article PMC6886798, “Expression of myeloid Src-family kinases is associated with poor prognosis in AML and influences Flt3-ITD kinase inhibitor acquired resistance” (PLoS ONE, 2019).

Experiments:
Assay in all cases: KINOMEscan
Assay type in all cases: binding
Settings in all cases: 1.0 µM
[1] = target: T1, JAK2(JH1domain-catalytic) (Homo sapiens, UniProt O60674)
T1 construct: JAK2(JH1domain-catalytic); purchased Eurofins/DiscoverX KINOMEscan scanMAX
Procedure: (§1) Kinase retention to the immobilized ligand is then measured using quantitative real-time PCR for each kinase-specific DNA barcode.

[2] = target: T2, ERK8 (Homo sapiens, UniProt Q8TD08)
T2 construct: purchased Eurofins/DiscoverX KINOMEscan scanMAX
Procedure: as §1

[3] = target: T3, ADCK3 (Homo sapiens, UniProt Q8NI60)
T3 construct: purchased Eurofins/DiscoverX KINOMEscan scanMAX
Procedure: as §1

[4] = target: T4, KIT(A829P) (Homo sapiens, UniProt P10721, A829P)
T4 construct: purchased Eurofins/DiscoverX KINOMEscan scanMAX
T4 sequence (P10721 26-976 A829P): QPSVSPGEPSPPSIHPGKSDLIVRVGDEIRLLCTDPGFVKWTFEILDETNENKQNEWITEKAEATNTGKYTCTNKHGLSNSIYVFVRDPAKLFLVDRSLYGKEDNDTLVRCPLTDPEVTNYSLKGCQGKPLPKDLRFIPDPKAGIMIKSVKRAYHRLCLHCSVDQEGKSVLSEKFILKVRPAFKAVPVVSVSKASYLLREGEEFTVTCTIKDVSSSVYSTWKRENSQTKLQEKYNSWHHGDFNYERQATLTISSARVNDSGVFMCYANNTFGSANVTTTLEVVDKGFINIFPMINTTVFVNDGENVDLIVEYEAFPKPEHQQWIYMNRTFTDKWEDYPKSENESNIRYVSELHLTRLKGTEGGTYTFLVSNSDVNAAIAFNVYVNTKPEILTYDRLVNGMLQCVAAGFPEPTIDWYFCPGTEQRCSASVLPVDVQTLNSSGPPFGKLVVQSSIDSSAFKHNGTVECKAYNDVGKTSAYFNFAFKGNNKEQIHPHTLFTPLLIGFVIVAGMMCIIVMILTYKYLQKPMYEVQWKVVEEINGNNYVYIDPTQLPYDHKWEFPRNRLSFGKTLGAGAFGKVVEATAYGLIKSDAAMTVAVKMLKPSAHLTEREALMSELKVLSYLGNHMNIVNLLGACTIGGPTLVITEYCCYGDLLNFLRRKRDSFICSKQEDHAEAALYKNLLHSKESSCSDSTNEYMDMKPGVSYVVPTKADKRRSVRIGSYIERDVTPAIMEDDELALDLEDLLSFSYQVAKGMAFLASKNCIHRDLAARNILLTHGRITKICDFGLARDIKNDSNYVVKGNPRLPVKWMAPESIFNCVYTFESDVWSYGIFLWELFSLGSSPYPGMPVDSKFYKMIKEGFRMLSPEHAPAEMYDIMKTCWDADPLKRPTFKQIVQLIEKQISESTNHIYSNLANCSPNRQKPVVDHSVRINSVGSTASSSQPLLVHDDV
Procedure: as §1

[5] = target: T5, PDPK1 (Homo sapiens, UniProt O15530)
T5 construct: purchased Eurofins/DiscoverX KINOMEscan scanMAX
Procedure: as §1

[6] = target: T6, IKK-beta (Homo sapiens, UniProt O14920)
T6 construct: purchased Eurofins/DiscoverX KINOMEscan scanMAX
Procedure: as §1

[7] = target: T7, RSK1(Kin.Dom.1-N-terminal) (Homo sapiens, UniProt Q15418)
T7 construct: RSK1(Kin.Dom.1-N-terminal); purchased Eurofins/DiscoverX KINOMEscan scanMAX
Procedure: as §1

[8] = target: T8, DYRK1B (Homo sapiens, UniProt Q9Y463)
T8 construct: purchased Eurofins/DiscoverX KINOMEscan scanMAX
Procedure: as §1

[9] = target: T9, TIE1 (Homo sapiens, UniProt P35590)
T9 construct: purchased Eurofins/DiscoverX KINOMEscan scanMAX
Procedure: as §1

[10] = target: T10, GRK4 (Homo sapiens, UniProt P32298)
T10 construct: purchased Eurofins/DiscoverX KINOMEscan scanMAX
Procedure: as §1

[11] = target: T11, EPHA4 (Homo sapiens, UniProt P54764)
T11 construct: purchased Eurofins/DiscoverX KINOMEscan scanMAX
T11 sequence (P54764 20-986): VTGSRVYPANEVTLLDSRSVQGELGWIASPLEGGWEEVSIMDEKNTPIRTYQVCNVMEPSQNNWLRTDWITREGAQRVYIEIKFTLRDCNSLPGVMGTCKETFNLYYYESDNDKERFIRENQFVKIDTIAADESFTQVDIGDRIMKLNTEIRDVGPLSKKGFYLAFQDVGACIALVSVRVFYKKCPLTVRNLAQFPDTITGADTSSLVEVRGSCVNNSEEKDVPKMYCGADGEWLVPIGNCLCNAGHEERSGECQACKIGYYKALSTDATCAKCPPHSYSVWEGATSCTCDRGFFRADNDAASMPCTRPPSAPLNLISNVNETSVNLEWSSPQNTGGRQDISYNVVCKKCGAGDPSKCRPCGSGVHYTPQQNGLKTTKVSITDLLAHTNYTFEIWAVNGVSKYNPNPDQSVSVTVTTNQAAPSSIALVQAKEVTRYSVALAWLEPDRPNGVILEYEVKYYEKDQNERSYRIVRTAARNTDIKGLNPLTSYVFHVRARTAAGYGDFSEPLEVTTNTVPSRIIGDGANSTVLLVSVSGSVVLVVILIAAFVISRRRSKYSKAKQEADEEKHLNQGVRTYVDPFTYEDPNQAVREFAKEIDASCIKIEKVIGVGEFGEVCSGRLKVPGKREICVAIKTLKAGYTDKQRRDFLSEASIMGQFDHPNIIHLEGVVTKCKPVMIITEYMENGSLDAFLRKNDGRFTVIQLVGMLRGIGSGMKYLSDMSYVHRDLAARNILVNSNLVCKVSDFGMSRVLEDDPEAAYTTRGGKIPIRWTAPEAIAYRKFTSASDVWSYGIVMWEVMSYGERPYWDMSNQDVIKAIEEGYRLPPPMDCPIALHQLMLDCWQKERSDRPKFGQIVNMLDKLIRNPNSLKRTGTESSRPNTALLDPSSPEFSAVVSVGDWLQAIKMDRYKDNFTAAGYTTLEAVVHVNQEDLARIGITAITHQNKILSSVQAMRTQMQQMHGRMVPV
Procedure: as §1

[12] = target: T12, EPHA6 (Homo sapiens, UniProt Q9UF33)
T12 construct: purchased Eurofins/DiscoverX KINOMEscan scanMAX
Procedure: as §1

[13] = target: T13, ABL2 (Homo sapiens, UniProt P42684)
T13 construct: purchased Eurofins/DiscoverX KINOMEscan scanMAX
Procedure: as §1

[14] = target: T14, OSR1 (Homo sapiens, UniProt O95747)
T14 construct: purchased Eurofins/DiscoverX KINOMEscan scanMAX
Procedure: as §1

[15] = target: T15, VPS34 (Homo sapiens, UniProt Q8NEB9)
T15 construct: DNA tag (qPCR barcode); purchased Eurofins/DiscoverX KINOMEscan scanMAX
T15 sequence (Q8NEB9 whole entry): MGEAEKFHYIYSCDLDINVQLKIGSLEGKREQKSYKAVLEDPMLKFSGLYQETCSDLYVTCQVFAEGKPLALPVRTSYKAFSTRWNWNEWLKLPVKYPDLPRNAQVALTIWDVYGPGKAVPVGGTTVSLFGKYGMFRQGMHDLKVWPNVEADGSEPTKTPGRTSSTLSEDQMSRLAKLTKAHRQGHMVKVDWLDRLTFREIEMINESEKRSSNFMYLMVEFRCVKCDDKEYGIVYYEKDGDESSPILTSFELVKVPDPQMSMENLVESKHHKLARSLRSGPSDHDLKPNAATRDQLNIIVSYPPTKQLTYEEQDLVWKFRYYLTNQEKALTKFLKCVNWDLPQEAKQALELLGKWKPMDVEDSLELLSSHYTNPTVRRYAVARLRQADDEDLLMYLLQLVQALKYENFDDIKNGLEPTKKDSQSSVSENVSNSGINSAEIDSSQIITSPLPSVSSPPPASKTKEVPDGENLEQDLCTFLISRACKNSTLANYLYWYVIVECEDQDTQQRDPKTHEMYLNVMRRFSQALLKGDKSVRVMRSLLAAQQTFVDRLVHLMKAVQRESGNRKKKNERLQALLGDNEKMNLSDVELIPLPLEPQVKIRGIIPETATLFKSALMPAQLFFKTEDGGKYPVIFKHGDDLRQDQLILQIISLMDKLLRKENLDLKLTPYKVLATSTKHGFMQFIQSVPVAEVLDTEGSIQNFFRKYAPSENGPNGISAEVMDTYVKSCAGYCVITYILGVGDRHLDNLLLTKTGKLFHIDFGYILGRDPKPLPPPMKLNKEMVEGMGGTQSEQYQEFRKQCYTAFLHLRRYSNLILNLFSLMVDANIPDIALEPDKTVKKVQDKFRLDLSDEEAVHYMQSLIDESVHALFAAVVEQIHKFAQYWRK
Procedure: as §1

[16] = target: T16, TRKB (Homo sapiens, UniProt Q16620)
T16 construct: purchased Eurofins/DiscoverX KINOMEscan scanMAX
T16 sequence (Q16620 32-822): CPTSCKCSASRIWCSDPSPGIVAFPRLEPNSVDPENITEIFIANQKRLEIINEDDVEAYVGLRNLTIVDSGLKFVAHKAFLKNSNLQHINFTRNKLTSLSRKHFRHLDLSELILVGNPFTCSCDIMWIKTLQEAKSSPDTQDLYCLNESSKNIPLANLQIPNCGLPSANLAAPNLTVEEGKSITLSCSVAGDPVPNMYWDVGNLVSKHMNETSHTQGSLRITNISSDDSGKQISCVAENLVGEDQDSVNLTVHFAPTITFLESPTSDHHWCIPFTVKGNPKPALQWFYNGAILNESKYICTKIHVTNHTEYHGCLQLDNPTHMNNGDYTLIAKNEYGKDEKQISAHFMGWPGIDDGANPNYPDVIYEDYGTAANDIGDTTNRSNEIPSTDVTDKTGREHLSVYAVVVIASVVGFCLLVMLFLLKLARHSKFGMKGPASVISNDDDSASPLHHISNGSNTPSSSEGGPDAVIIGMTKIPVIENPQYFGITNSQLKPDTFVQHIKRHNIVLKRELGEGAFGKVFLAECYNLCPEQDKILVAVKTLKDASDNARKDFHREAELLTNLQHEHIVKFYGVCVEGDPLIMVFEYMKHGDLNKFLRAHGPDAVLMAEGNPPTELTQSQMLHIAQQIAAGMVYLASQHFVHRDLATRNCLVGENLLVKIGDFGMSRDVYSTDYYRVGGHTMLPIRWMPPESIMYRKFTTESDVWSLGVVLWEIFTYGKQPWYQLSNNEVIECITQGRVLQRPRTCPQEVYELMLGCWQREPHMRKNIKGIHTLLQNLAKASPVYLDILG
Procedure: as §1

[17] = target: T17, FLT3 (Homo sapiens, UniProt P36888)
T17 construct: purchased Eurofins/DiscoverX KINOMEscan scanMAX
Procedure: as §1

[18] = target: T18, EPHB3 (Homo sapiens, UniProt P54753)
T18 construct: purchased Eurofins/DiscoverX KINOMEscan scanMAX
Procedure: as §1

[19] = target: T19, GSK3B (Homo sapiens, UniProt P49841)
T19 construct: purchased Eurofins/DiscoverX KINOMEscan scanMAX
T19 sequence (P49841 whole entry): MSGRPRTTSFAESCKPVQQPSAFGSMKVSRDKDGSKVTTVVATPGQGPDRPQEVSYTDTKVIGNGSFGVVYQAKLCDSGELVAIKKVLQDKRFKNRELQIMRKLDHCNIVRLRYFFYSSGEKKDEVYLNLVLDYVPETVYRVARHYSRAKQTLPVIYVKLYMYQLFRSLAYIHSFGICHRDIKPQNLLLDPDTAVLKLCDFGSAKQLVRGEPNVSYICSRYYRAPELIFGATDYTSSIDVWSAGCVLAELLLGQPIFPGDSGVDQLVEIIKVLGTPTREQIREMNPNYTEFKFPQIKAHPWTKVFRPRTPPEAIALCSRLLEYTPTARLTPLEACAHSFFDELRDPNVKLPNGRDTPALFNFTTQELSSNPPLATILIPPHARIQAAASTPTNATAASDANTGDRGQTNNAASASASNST
Procedure: as §1

[20] = target: T20, KIT(L576P) (Homo sapiens, UniProt P10721, L576P)
T20 construct: purchased Eurofins/DiscoverX KINOMEscan scanMAX
T20 sequence (P10721 26-976 L576P): as the sequence (P10721 26-976 A829P) above, with L551P, P804A counted along it
Procedure: as §1

[21] = target: T21, MAP3K15 (Homo sapiens, UniProt Q6ZN16)
T21 construct: purchased Eurofins/DiscoverX KINOMEscan scanMAX
Procedure: as §1

[22] = target: T22, IKK-epsilon (Homo sapiens, UniProt Q14164)
T22 construct: purchased Eurofins/DiscoverX KINOMEscan scanMAX
Procedure: as §1

[23] = target: T23, PKN1 (Homo sapiens, UniProt Q16512)
T23 construct: purchased Eurofins/DiscoverX KINOMEscan scanMAX
Procedure: as §1

[24] = target: T24, TGFBR2 (Homo sapiens, UniProt P37173)
T24 construct: purchased Eurofins/DiscoverX KINOMEscan scanMAX
Procedure: as §1

[25] = target: T25, BRSK2 (Homo sapiens, UniProt Q8IWQ3)
T25 construct: purchased Eurofins/DiscoverX KINOMEscan scanMAX
Procedure: as §1

[26] = target: T26, IRAK4 (Homo sapiens, UniProt Q9NWZ3)
T26 construct: purchased Eurofins/DiscoverX KINOMEscan scanMAX
Procedure: as §1

[27] = target: T27, NEK2 (Homo sapiens, UniProt P51955)
T27 construct: purchased Eurofins/DiscoverX KINOMEscan scanMAX
Procedure: as §1

[28] = target: T28, TRKA (Homo sapiens, UniProt P04629)
T28 construct: purchased Eurofins/DiscoverX KINOMEscan scanMAX
Procedure: as §1

[29] = target: T29, TYK2(JH1domain-catalytic) (Homo sapiens, UniProt P29597)
T29 construct: TYK2(JH1domain-catalytic); DNA tag (qPCR barcode); purchased Eurofins/DiscoverX KINOMEscan scanMAX
T29 sequence (P29597 897-1176 limits assumed): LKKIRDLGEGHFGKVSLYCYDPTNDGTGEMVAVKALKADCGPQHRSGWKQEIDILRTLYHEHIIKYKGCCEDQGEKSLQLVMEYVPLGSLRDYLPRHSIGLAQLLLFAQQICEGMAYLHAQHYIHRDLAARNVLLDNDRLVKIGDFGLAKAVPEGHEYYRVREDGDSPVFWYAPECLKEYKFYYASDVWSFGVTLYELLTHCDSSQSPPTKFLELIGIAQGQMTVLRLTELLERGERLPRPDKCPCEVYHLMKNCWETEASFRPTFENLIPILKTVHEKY
Procedure: as §1

[30] = target: T30, CSNK1G2 (Homo sapiens, UniProt P78368)
T30 construct: purchased Eurofins/DiscoverX KINOMEscan scanMAX
Procedure: as §1

[31] = target: T31, FLT4 (Homo sapiens, UniProt P35916)
T31 construct: purchased Eurofins/DiscoverX KINOMEscan scanMAX
Procedure: as §1

[32] = target: T32, TTK (Homo sapiens, UniProt P33981)
T32 construct: DNA tag (qPCR barcode); purchased Eurofins/DiscoverX KINOMEscan scanMAX
Procedure: as §1

[33] = target: T33, LTK (Homo sapiens, UniProt P29376)
T33 construct: purchased Eurofins/DiscoverX KINOMEscan scanMAX
Procedure: as §1

[34] = target: T34, CDC2L1 (Homo sapiens, UniProt P21127)
T34 construct: purchased Eurofins/DiscoverX KINOMEscan scanMAX
Procedure: as §1

[35] = target: T35, RSK2(Kin.Dom.2-C-terminal) (Homo sapiens, UniProt P51812)
T35 construct: RSK2(Kin.Dom.2-C-terminal); purchased Eurofins/DiscoverX KINOMEscan scanMAX
T35 sequence (P51812 422-679 limits assumed): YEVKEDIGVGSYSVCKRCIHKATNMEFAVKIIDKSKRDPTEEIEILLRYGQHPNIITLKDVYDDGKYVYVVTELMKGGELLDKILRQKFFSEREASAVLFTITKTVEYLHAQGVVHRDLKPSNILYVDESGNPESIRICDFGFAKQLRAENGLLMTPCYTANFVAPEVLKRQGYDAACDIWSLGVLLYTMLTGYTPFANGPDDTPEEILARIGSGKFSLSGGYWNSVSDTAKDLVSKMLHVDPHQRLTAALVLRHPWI
Procedure: as §1

[36] = target: T36, MET (Homo sapiens, UniProt P08581)
T36 construct: purchased Eurofins/DiscoverX KINOMEscan scanMAX
Procedure: as §1

[37] = target: T37, MYLK4 (Homo sapiens, UniProt Q86YV6)
T37 construct: purchased Eurofins/DiscoverX KINOMEscan scanMAX
Procedure: as §1

[38] = target: T38, MKNK1 (Homo sapiens, UniProt Q9BUB5)
T38 construct: purchased Eurofins/DiscoverX KINOMEscan scanMAX
Procedure: as §1

[39] = target: T39, p38-alpha (Homo sapiens, UniProt Q16539)
T39 construct: purchased Eurofins/DiscoverX KINOMEscan scanMAX
Procedure: as §1

[40] = target: T40, CDK8 (Homo sapiens, UniProt P49336)
T40 construct: purchased Eurofins/DiscoverX KINOMEscan scanMAX
Procedure: as §1

T1 sequence (O60674 840-1132 limits assumed): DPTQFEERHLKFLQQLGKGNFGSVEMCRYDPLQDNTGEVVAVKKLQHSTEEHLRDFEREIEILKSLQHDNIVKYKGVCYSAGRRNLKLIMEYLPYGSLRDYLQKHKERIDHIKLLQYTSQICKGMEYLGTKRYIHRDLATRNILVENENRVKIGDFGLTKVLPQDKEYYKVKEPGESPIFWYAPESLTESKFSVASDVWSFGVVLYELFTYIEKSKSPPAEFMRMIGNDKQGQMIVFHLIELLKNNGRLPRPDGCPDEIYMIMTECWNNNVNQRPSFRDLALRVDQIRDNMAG

## CN1CCN(C2CCC(n3cc(-c4ccc(Oc5ccccc5)cc4)c4c(N)ncnc43)CC2)CC1 (stereo not shown) [A-419259]
[1]
  % Control: 100%
[2]
  % Control: 100%
[3]
  % Control: 100%
[4]
  % Control: 5.9%
[5]
  % Control: 100%
[6]
  % Control: 90%
[7]
  % Control: 8.4%
[8]
  % Control: 21%
[9]
  % Control: 25%
[10]
  % Control: 100%
[11]
  % Control: 100%
[12]
  % Control: 94%
[13]
  % Control: 4.9%
[14]
  % Control: 100%
[15]
  % Control: 63%
[16]
  % Control: 29%
[17]
  % Control: 0.65%
[18]
  % Control: 100%
[19]
  % Control: 95%
[20]
  % Control: 0%
[21]
  % Control: 79%
[22]
  % Control: 100%
[23]
  % Control: 88%
[24]
  % Control: 100%
[25]
  % Control: 10%
[26]
  % Control: 90%
[27]
  % Control: 81%
[28]
  % Control: 16%
[29]
  % Control: 100%
[30]
  % Control: 84%
[31]
  % Control: 19%
[32]
  % Control: 3.5%
[33]
  % Control: 36%
[34]
  % Control: 61%
[35]
  % Control: 100%
[36]
  % Control: 58%
[37]
  % Control: 96%
[38]
  % Control: 63%
[39]
  % Control: 100%
[40]
  % Control: 28%
